Data set [1] relates to organ slice of cat cerebral cortex. As to the kind of experiment: Inhibition test on cerebral edema using organ slice of cat cerebral cortex (NaHCO3-stimulated swelling). The format is cell-based. The conditions noted are these: Felis catus, 50 min, cat cerebral cortex slices, 50 minutes at 37° C., pH 7.4, swelling stimulated with NaHCO3; for inhibition at 0.01 µM: 10^-8 M, read-out: a percentage of inhibition of swelling at 10^-8 M (%); for IC50: read-out: inhibitory activity of cerebral edema (IC50). The procedure:
THE INHIBITION TEST ON CEREBRAL EDEMA USING ORGAN SLICE OF CAT CEREBRAL CORTEX
The test was carried out by the method described in Journal of Medicinal Chemistry, Vol. 25 (No. 5), 567 (1982).
That is, brain was isolated from a cat weighing 2~4 kg, slices of about 1 mm in thickness was prepared, the white matter substance was removed, and the gray matter substance (100~150 mg a test) was used for a sample. The sample was added to the following incubation medium and incuvated for 50 minutes at 37° C. After the incubation, the sample was immediately weighed again to determine the swelling weight of the sample.
(osmotic pressure, 280~290 mOsm/l)
1. Hepes Buffer (pH 7.4). . . 2.365 ml
adjusted to pH 7.4 by NaOH
2. test compounds [dissolved in the presence of tris(hydroxymethyl) aminomethane] or water. . . 0.01 ml
3. 0.2M NaHCO3 (dissolved by Hepes Buffer, giving the final concentration of 10 mM in medium) or Hepes Buffer. . . 0.125 ml
The test was carried out by using NaHCO3 as a stimulating agent of swelling.
(A) A percentage of swelling when a slice sample was added to incubation medium comprising Hepes Buffer, water and NaHCO3 (defined as maximum of swelling).
(B) A percentage of swelling when a slice sample was added to incubation medium comprising Hepes Buffer and water (defined as maximum inhibition of swelling).
(C) A percentage of swelling when a slice sample was added to incubation medium comprising Hepes Buffer, the test compounds in various concentrations and NaHCO3.
Above-mentioned (A), (B) and (C) were determined. Inhibition percentage of the test compounds was caliculated by the following equation: [formula] IC50 value was determined by dose-response curve as a concentration in which inhibition percentage was 50.
The results are shown Table I. And further, percentages of swelling of (C) was counted, in the case that concentration of test compound of (C) was 10^-8 M, and inhibition of swelling at the concentration of 10^-8 M was determined by percentages of swelling of both (A) and (B).

Another data set deals with mice. Put plainly: Acute toxicity test in mice by intravenous administration. The format is in vivo. The conditions noted are these: dead/treated. Here is the method:
For example, in the acute toxicity test in mice by intravenous administration, the mortality of compound of example 1 and 1-3 are 0/6 and 0/6 at the dose of 100 mg/kg and are 6/6 and 4/6 at the dose of 200 mg/kg, respectively.

`O=C(c1ccc(O[C@H]2CC[C@H](C(=O)O)C2)c(Cl)c1Cl)c1cccc2ccccc12` [Example 1-19, (1S,3S)-3-[{2,3-dichloro-4-(1-naphthoyl)}phenoxy]cyclopentanecarboxylic acid]: in data set [1], the inhibition at 0.01 µM was found to be 90% and the IC50 amounted to 4.1 nM.

In the case of `O=C(c1ccccc1)c1ccc(O[C@H]2CC[C@H](C(=O)O)C2)cc1Cl` [Example 1-25, (1S,3S)-3-[(3-chloro-4-benzoyl)phenoxy]cyclopentanecarboxylic acid], in data set [1], the inhibition at 0.01 µM came to 100% and the IC50 came to 3 nM.

Regarding `O=C(Cc1ccccc1)c1ccc(O[C@H]2CC[C@H](C(=O)O)C2)c(Cl)c1Cl` [Example 1-13, (1S,3S)-3-[(2,3-dichloro-4-phenylacetyl)phenoxy]cyclopentanecarboxylic acid], the inhibition at 0.01 µM in data set [1] turned out to be 36%.

With `O=C(c1ccccc1)c1ccc(O[C@H]2CC[C@H](C(=O)O)C2)c(Cl)c1Cl` [Example 1, (1S,3S)-3-[(2,3-dichloro-4-benzoyl)phenoxy]cyclopentanecarboxylic acid], the half-inhibitory concentration (IC50) in data set [1] is 5.5 nM. In addition, the figures for the mortality with mice (100 mg/kg) and in the data set with mice (200 mg/kg) were 0/6 and 6/6, respectively.

On to `O=C(c1ccccc1F)c1ccc(O[C@H]2CC[C@H](C(=O)O)C2)c(Cl)c1Cl` [Example 1-8, (1S,3S)-3-[{2,3-dichloro-4-(2-fluorobenzoyl)}phenoxy]cyclopentanecarboxylicacid], for which, in data set [1], the inhibition at 0.01 µM amounted to 82% and the IC50 is 2.6 nM.

For the compound `O=C(c1ccccc1)c1ccc(O[C@H]2CC[C@H](C(=O)O)C2)c2ccccc12` [Example 4, (1S,3S)-3-(4-benzoyl-1-naphthoxy)cyclopentanecarboxylic acid], the inhibition at 0.01 µM in data set [1] came to 41%.

Turning to `Cc1cccc(C(=O)c2ccc(O[C@H]3CC[C@H](C(=O)O)C3)c(Cl)c2Cl)c1` [Example 1-20, (1S,3S)-3-[{2,3-dichloro-4-(3-methylbenzoyl)}phenoxy]cyclopentanecarboxylicacid], the inhibition at 0.01 µM in data set [1] is 78%.

Consider `O=C(c1cccs1)c1ccc(O[C@H]2CC[C@H](C(=O)O)C2)c(Cl)c1Cl` [Example 1-3, (1S,3S)-3-[{2,3-dichloro-4-(2-thenoyl)}phenoxy]cyclopentanecarboxylic acid], for which the IC50 in data set [1] came out at 2.2 nM. The mortality with mice (100 mg/kg) was 0/6; in the data set on mice (200 mg/kg), 4/6.

As for `O=C(c1cccc([N+](=O)[O-])c1)c1ccc(O[C@H]2CC[C@H](C(=O)O)C2)c(Cl)c1Cl` [Example 1-12, (1S,3S)-3-[{2,3-dichloro-4-(3-nitrobenzoyl)}phenoxy]cyclopentanecarboxylic acid], the inhibition at 0.01 µM in data set [1] is 52%.

As a reminder, the inhibition is the change of the read-out against control, counted positive when it falls. In general, IC50 refers to the midpoint of a concentration-inhibition curve.
